Consider 11 compounds from US20250195521A1 (Revolution Medicines, Inc., priority 2020, published 2025).

The test system of test [1] is K-Ras G12C (NCI-H358 cells). Nature of the test: Potency assay: pERK in NCI-H358 cells. Type of test: cell-based, human. Conditions: Homo sapiens; NCI-H358 cells, 4 hours; read-out: pERK EC50 (H358 KRAS G12C). Summed up:
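Cells plated the day before were exposed for 4 h at 37° C, 5% CO2 to a 10-point, 3-fold DMSO dilution series (10 mM top stock), in duplicate. Phospho-ERK was read by AlphaLISA SureFire Ultra or by In-Cell Western with DRAQ5 DNA stain, and IC50 came from a 4-parameter sigmoidal fit.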

In test [2] the target is NRAS G12C binding to BRAF RBD (Homo sapiens (Human), UniProt P01111+P62937, G12C). The test can be described thus: Ras-Raf disruption/FRET/MOA assay, NRAS G12C. Type of test: biochemical. Summed up:
(§1)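 First, test compounds in a 10-point 3-fold series (30 μM final top) were incubated for 3 hours at 25° C with nucleotide-loaded Ras, cyclophilin A and a BRAF RBD construct. Next, Eu anti-His and allophycocyanin anti-GST detection reagents were added for 1.5 hours. Finally, IC50s were derived from loss of TR-FRET signal against DMSO.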

For test [3], the target named is NRAS WT binding to BRAF RBD (Homo sapiens (Human), UniProt P01111+P62937). Nature of the test: Ras-Raf disruption/FRET/MOA assay, NRAS WT. Type of test: biochemical. An excerpt:
(§2) Disruption of B-Raf Ras-binding Domain (BRAF^RBD) Interaction with K-Ras by Compounds of the Invention (also called a FRET assay or an MOA assay)
(§3) Note—The following protocol describes a procedure for monitoring disruption of K-Ras G12C(GMP-PNP) binding to BRAF^RBD by a compound of the invention. This protocol may also be executed substituting other Ras proteins or nucleotides.
(§4) The purpose of this biochemical assay was to measure the ability of test compounds to facilitate ternary complex formation between a nucleotide-loaded K-Ras isoform and Cyclophilin A; the resulting ternary complex disrupts binding to a BRAF^RBD construct, inhibiting K-Ras signaling through a RAF effector. Data is reported as IC50 values.
(§5) In assay buffer containing 25 mM HEPES pH 7.3, 0.002% Tween20, 0.1% BSA, 100 mM NaCl and 5 mM MgCl2, tagless Cyclophilin A, His6-K-Ras-GMPPNP, and GST-BRAF^RBD were combined in a 384-well assay plate at final concentrations of 25 μM, 12.5 nM and 50 nM, respectively. Compound was present in plate wells as a 10-point 3-fold dilution series starting at a final concentration of 30 μM. After incubation at 25° C. for 3 hours, a mixture of Anti-His Eu—W1024 and anti-GST allophycocyanin was then added to assay sample wells at final concentrations of 10 nM and 50 nM, respectively, and the reaction incubated for an additional 1.5 hours. […] Compounds that facilitate disruption of a K-Ras: RAF complex were identified as those eliciting a decrease in the TR-FRET ratio relative to DMSO control wells.

In test [4] the target is KRAS Q61H binding to BRAF RBD (Homo sapiens (Human), UniProt P01116+P62937, Q61H). Nature of the test: Ras-Raf disruption/FRET/MOA assay, KRAS Q61H. Type of test: biochemical.
Sequence of KRAS Q61H binding to BRAF RBD (P01116 other isoform, or with tags, fused parts or gaps Q61H): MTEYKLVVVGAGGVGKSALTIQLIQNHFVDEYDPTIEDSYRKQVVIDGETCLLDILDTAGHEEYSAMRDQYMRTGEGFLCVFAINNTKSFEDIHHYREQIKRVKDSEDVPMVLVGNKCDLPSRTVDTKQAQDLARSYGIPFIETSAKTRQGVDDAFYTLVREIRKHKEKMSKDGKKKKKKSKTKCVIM
Sequence of KRAS Q61H binding to BRAF RBD (P62937 whole entry): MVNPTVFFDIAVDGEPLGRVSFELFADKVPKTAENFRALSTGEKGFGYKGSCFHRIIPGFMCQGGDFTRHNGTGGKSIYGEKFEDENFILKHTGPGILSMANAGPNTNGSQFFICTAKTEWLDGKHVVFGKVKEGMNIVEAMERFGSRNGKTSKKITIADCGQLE
Excerpt: as §2, §3, §4, §5

Test [5] addresses NRAS Q61K binding to BRAF RBD (Homo sapiens (Human), UniProt P01111+P62937, Q61K). Nature of the test: Ras-Raf disruption/FRET/MOA assay, NRAS Q61K. Type of test: biochemical.
Excerpt: as §2, §3, §4, §5

A further test has as its system NCI-H358 (K-Ras G12C). Nature of the test: CellTiter-Glo cell viability assay, NCI-H358. Type of test: cell-based, human. Conditions: Homo sapiens, NCI-H358, 120 h, 5-day treatment; read-out: H358 Cell Viability assay data (K-Ras G12C, IC50). The method, boiled down:
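Cells seeded, compound added directly to plates; day 5: plates to RT ~30 min, CellTiter-Glo luminescence; (sample/avg DMSO)*100; 4-parameter fit.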

Test [6] addresses K-Ras G12C(GMP-PNP) binding to BRAF RBD (Homo sapiens (Human), UniProt P01116+P62937, G12C). The test can be described thus: Disruption of BRAF RBD interaction with K-Ras (FRET / MOA assay), K-Ras G12C. Type of test: biochemical. Conditions: read-out: KRAS G12C FRET IC50. The method, boiled down:
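Incubation of compound (up to 30 μM final, 3-fold steps) with GMP-PNP-type loaded Ras isoform, cyclophilin A and BRAF RBD ran 3 h at 25° C, followed by 1.5 h with detection antibodies. Disruption appears as a reduced TR-FRET ratio compared with DMSO controls, expressed as IC50.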

Test [7] concerns the target KRAS G13D binding to BRAF RBD (Homo sapiens (Human), UniProt P01116+P62937, G13D). Nature of the test: Ras-Raf disruption/FRET/MOA assay, KRAS G13D. Type of test: biochemical. Summed up: as §1
For test [8], the target named is NRAS Q61R binding to BRAF RBD (Homo sapiens (Human), UniProt P01111+P62937, Q61R). The test can be described thus: Ras-Raf disruption/FRET/MOA assay, NRAS Q61R. Type of test: biochemical.
Sequence of NRAS Q61R binding to BRAF RBD (P01111 whole entry Q61R): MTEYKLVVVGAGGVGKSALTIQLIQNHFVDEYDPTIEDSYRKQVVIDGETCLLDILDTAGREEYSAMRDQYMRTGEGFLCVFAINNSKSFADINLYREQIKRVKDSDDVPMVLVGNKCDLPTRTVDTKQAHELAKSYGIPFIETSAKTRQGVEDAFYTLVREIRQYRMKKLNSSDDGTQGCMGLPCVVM
Sequence of NRAS Q61R binding to BRAF RBD (P62937 whole entry): as the sequence (P62937 whole entry) above
Excerpt: as §2, §3, §4, §5

Sequence of K-Ras G12C(GMP-PNP) binding to BRAF RBD (P01116 other isoform, or with tags, fused parts or gaps G12C): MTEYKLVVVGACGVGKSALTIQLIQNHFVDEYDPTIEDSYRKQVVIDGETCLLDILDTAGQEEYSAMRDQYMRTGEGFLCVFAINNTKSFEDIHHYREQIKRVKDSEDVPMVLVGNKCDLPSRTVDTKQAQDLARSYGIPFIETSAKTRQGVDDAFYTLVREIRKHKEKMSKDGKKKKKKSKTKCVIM
Sequence of K-Ras G12C(GMP-PNP) binding to BRAF RBD (P62937 whole entry, canonical isoform): as the sequence (P62937 whole entry) above
Sequence of KRAS G13D binding to BRAF RBD (P01116 other isoform, or with tags, fused parts or gaps G13D): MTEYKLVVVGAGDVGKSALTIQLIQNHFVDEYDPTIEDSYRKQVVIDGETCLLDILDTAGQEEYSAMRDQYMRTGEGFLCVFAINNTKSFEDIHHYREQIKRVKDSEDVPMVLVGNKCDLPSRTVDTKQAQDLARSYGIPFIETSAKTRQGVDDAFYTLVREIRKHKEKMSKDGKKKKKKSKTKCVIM
Sequence of KRAS G13D binding to BRAF RBD (P62937 whole entry): as the sequence (P62937 whole entry) above
Sequence of NRAS WT binding to BRAF RBD (P01111 whole entry, the tested form may be a part): as the sequence (P01111 whole entry Q61R) above, with R61Q counted along it
Sequence of NRAS WT binding to BRAF RBD (P62937 whole entry, the tested form may be a part): as the sequence (P62937 whole entry) above
Sequence of NRAS G12C binding to BRAF RBD (P01111 whole entry G12C): as the sequence (P01111 whole entry Q61R) above, with G12C, R61Q counted along it
Sequence of NRAS G12C binding to BRAF RBD (P62937 whole entry): as the sequence (P62937 whole entry) above
Sequence of NRAS Q61K binding to BRAF RBD (P01111 whole entry Q61K): as the sequence (P01111 whole entry Q61R) above, with R61K counted along it
Sequence of NRAS Q61K binding to BRAF RBD (P62937 whole entry): as the sequence (P62937 whole entry) above

For orientation: EC50 means the midpoint of the concentration-response curve. In general, IC50 refers to the concentration at which inhibition is half-maximal. Consider `C=CC(=O)N1CC[C@H](C(=O)N(C)[C@H](C(=O)N[C@H]2Cc3cccc(c3)-c3ccc4c(c3)c(c(-c3cccnc3[C@H](C)OC)n4CC)CC(C)(C)COC(=O)[C@@H]3CCCN(N3)C2=O)[C@H](C)C(F)(F)F)C1` (atropisomer, axis not shown) [Compound A641], for which, in test [1], the EC50 is less than 5 µM. Also, the concentration for half-maximal inhibition (IC50) lay in the range of 100 to 1000 nM in test [2]; 1000 to 10000 nM in test [3]; 1000 to 10000 nM in test [4]; 1 to 10 µM in test [5]; 10 to 100 nM in the test with NCI-H358 (K-Ras G12C); 100 to 1000 nM in test [6]. The concentration for half-maximal inhibition (IC50) in [7] and in test [8] was 1 to 10 µM throughout.

Turning to `CCn1c(-c2cccnc2[C@H](C)OC)c2c3cc(ccc31)-c1cnc(o1)C[C@H](NC(=O)[C@@H](COC1CN(C(=O)C#CC(C)(C)N(C)C)C1)C(C)C)C(=O)N1CCC[C@H](N1)C(=O)OCCC2` (atropisomer, axis not shown) [Compound A649], the EC50 in test [1] was less than 5 µM. Also, the 50% inhibitory concentration (IC50) in [2] is 10 to 100 nM; in test [3] it was more than 10000 nM; in test [4], more than 10000 nM; in test [5], more than 10 µM; in the test on NCI-H358 (K-Ras G12C) it was 10 to 100 nM; in test [6] it was 10 to 100 nM. For the same compound, the IC50 in test [7] and in test [8] was more than 10 µM throughout.

Consider `CC[C@H](COC1CN(C(=O)C#CC(C)(C)N(C)C)C1)C(=O)N[C@H]1Cc2nc(cs2)-c2ccc3c(c2)c(c(-c2cccnc2[C@H](C)OC)n3CC)CC(C)(C)COC(=O)[C@@H]2CCCN(N2)C1=O` (atropisomer, axis not shown) [Compound A660], for which the EC50 in [1] was less than 5 µM. In addition, the IC50 in [2] is less than 10 nM; in [3], 100 to 1000 nM; in test [4] it was 100 to 1000 nM; in test [5], 0.1 to 1 µM; in the test on NCI-H358 (K-Ras G12C), less than 10 nM; in test [6], less than 10 nM. Besides, the concentration for half-maximal inhibition (IC50) in test [7] and in [8] was 1 to 10 µM throughout.

As for `CC[C@@H](COC1CN(C(=O)C#CC(C)(C)N(C)C)C1)C(=O)N[C@H]1Cc2nc(cs2)-c2ccc3c(c2)c(c(-c2cccnc2[C@H](C)OC)n3CC)CC(C)(C)COC(=O)[C@@H]2CCCN(N2)C1=O` (atropisomer, axis not shown) [Compound A705], in test [1], the EC50 is less than 5 µM. Besides, the half-inhibitory concentration (IC50) was less than 10 nM in test [2]; 1000 to 10000 nM in test [3]; 1000 to 10000 nM in [4]; 1 to 10 µM in test [5]; less than 10 nM in the test with NCI-H358 (K-Ras G12C); less than 10 nM in test [6]. The IC50 in test [7] and in test [8] was more than 10 µM throughout.

`CCn1c(-c2cccnc2[C@H](C)OC)c2c3cc(ccc31)-c1cccc(c1)C[C@H](NC(=O)[C@H](C(C)C)N1CC[C@@]3(CCN(C(=O)C#CC(C)(C)N4CCC4)C3)C1=O)C(=O)N1CCC[C@H](N1)C(=O)OCC(C)(C)C2` (atropisomer, axis not shown) [Compound A733]: in test [1], the 50% effective concentration (EC50) is less than 5 µM. The IC50 in test [2] is 10 to 100 nM; in test [3] it was more than 10000 nM; in [4], 1000 to 10000 nM; in test [5] it was more than 10 µM; in the test on NCI-H358 (K-Ras G12C) it was less than 10 nM; in test [6], 10 to 100 nM. Further, the IC50 in test [7] and in test [8] was more than 10 µM each time.

Take `CCn1c(-c2cncnc2)c2c3cc(ccc31)-c1csc(n1)C[C@H](NC(=O)[C@H](C(C)C)N(C)C(=O)[C@H]1CCN(S(=O)(=O)CC)C1)C(=O)N1CCC[C@H](N1)C(=O)OCC(C)(C)C2` [Compound A170]: the 50% inhibitory concentration (IC50) is 1000 to 10000 nM in test [2]; more than 10000 nM in test [3]; more than 10000 nM in test [4]; more than 10 µM in test [5]; 100 to 1000 nM in the test on NCI-H358 (K-Ras G12C); 1000 to 10000 nM in [6]. Also, the 50% inhibitory concentration (IC50) in test [7] and in test [8] was more than 10 µM in each case.

With `CCn1c(-c2cccnc2[C@H](C)OC)c2c3cc(ccc31)-c1csc(n1)C[C@H](NC(=O)C1(COC3CN(C(=O)C#CC(C)(C)N4CCC4)C3)CC1)C(=O)N1CCC[C@H](N1)C(=O)OCC(C)(C)C2` [Compound A362], the IC50 in test [2] was 10 to 100 nM; in [3] it was 1000 to 10000 nM; in [4], 1000 to 10000 nM; in [5], more than 10 µM; with NCI-H358 (K-Ras G12C) it was 10 to 100 nM; in [6], 10 to 100 nM. The IC50 in test [7] and in test [8] was more than 10 µM throughout.

`CCn1c(-c2cccnc2[C@H](C)OC)c2c3cc(ccc31)-c1cccc(c1)C[C@H](NC(=O)[C@H](C(C)C)N1CC[C@]3(CCN(C(=O)C#CC(C)(C)N4CCC4)C3)C1=O)C(=O)N1CCC[C@H](N1)C(=O)OCC(C)(C)C2` [Compound A365]: the 50% inhibitory concentration (IC50) is less than 10 nM in test [2]; 1000 to 10000 nM in test [3]; 100 to 1000 nM in test [4]; 1 to 10 µM in test [5]; less than 10 nM in the test on NCI-H358 (K-Ras G12C); less than 10 nM in [6]. The IC50 in test [7] and in test [8] was 1 to 10 µM each time.

For the compound `C=CC(=O)N1CC[C@H](C(=O)N(C)[C@H](C(=O)N[C@H]2CC3CN(CCO3)c3ccc4c(c3)c(c(-c3cccnc3[C@H](C)OC)n4CC)CC(C)(C)COC(=O)[C@@H]3CCCN(N3)C2=O)C(C)C)C1` [Compound A378], the EC50 in [1] was less than 5 µM. Also, the IC50 in [2] was 100 to 1000 nM; in [3], 1000 to 10000 nM; in [4], more than 10000 nM; in test [5], more than 10 µM; in the test on NCI-H358 (K-Ras G12C), 100 to 1000 nM; in [7], more than 10 µM. This compound also had an IC50 in [8] of more than 10 µM.

In the case of `C=CC(=O)N(C)CCN1CCN(C(=O)N(C)[C@H](C(=O)N[C@H]2C[n+]3cccc(c3)-c3ccc4c(c3)c(c(-c3cccnc3[C@H](C)OC)n4CC)CC(C)(C)COC(=O)[C@@H]3CCCN(N3)C2=O)C(C)C)CC1` [Compound A539], the half-inhibitory concentration (IC50) is 100 to 1000 nM in [2]; 100 to 1000 nM in [3]; 100 to 1000 nM in test [4]; 0.1 to 1 µM in test [5]; 100 to 1000 nM in the test with NCI-H358 (K-Ras G12C); 100 to 1000 nM in test [6]. Moreover, the half-maximal inhibitory concentration (IC50) lay in the range of 1 to 10 µM in test [7] and 0.1 to 1 µM in [8].

On to `C=CC(=O)N1CC[C@]2(C1)OCN([C@H](C(=O)N[C@H]1Cc3cc(cc(C(F)(F)F)c3)-c3ccc4c(c3)c(c(-c3cccnc3[C@H](C)OC)n4CC)CC(C)(C)COC(=O)[C@@H]3CCCN(N3)C1=O)C(C)C)C2=O` [Compound A557], for which the concentration giving a half-maximal response (EC50) in test [1] is less than 5 µM. The 50% inhibitory concentration (IC50) was in the range of 100 to 1000 nM in test [2]; 100 to 1000 nM in [3]; 10 to 100 nM in [4]; 1 to 10 µM in [5]; 100 to 1000 nM in the test on NCI-H358 (K-Ras G12C); 100 to 1000 nM in [6]. In addition, the IC50 in test [7] and in [8] was 1 to 10 µM in each case.
